Laboratory results published in patent US12679878B2, “CRF2 receptor agonists and their use in therapy” (SANOFI, priority 2020, dated 2026).
Like-named read-outs stand apart in the source and are kept apart here. Starred links: 1 amine or outer side, 2 acyl side, 3 side chain; linkers in the order of their positions; H or OH if unused. Non-standard residues stand in square brackets, D forms with d. Residues, ends and D or L forms follow the SMILES beside them. Groups on a side chain read outwards from the residue. *: point of attachment. C18 diacid = O=C(O)CCCCCCCCCCCCCCCCC(=O)*; γGlu = O=C(O)[C@H](CCC(=O)[*:2])N[*:1]; AEEA = NCCOCCOCC(=O)O; Aib = CC(C)(N)C(=O)O

What was measured:
human CRF2α receptor = biological target: T1, human CRF2α receptor (Homo sapiens, UniProt Q13324); assay: cAMP agonism at human CRF2 α receptor in TeloHEAC cells (Example 7); assay type: cell-based; settings: cAMP HTRF, TeloHEAC cells stably expressing human CRF2 α
T1 construct: expressed in transfected cells; host or cells: TeloHEAC
T1 sequence (Q13324 1-411): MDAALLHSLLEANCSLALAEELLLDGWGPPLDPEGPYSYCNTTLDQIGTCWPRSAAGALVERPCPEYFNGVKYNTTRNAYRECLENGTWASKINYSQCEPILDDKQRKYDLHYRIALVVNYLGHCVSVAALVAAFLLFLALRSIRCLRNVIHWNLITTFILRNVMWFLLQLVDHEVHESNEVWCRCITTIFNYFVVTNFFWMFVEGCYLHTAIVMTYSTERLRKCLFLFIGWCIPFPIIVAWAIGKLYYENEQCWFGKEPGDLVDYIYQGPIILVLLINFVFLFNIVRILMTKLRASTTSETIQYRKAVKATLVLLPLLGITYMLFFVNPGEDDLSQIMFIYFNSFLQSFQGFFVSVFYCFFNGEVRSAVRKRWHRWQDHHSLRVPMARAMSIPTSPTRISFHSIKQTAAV
Method in brief: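 Percent activation was referenced to 1000 nM UCN2 (100%), and EC50 values taken as concentrations giving half of maximal response. The read-out was a homogeneous time-resolved fluorescence cAMP kit, fluorescence ratio 665/620 nm. Thawed cells (2000/well) saw compound for 30 min at RT in buffer with 2 mM IBMX and 0%/0.1% HSA.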

[1] = Solubility in buffer systems by UPLC-UV (Example 13); assay type: physicochemical
Method in brief: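 Quantitation used UV peak area from UPLC of the 1:10-diluted supernatant, set against a reference-compound standard curve with extinction coefficients adjusted for amino acid sequence.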

[2] = Physical stability, Thioflavin T fibrillation assay (Example 14); assay type: physicochemical; settings: 3 mg/ml, 37° C. shaking
Description: The physical stability of the compounds was assessed using a Thioflavin T (ThT) assay.
The time course for fibril formation often follows the characteristic shape of a sigmoidal curve and can be separated into three regions: a lag phase, a fast growth phase, and a plateau phase. The typical fibril formation process starts with the lag phase in which the amount of partially folded peptide turned into fibrils is not significant enough to be detected. The lag-time corresponds to the time the critical mass of the nucleus is built. Afterwards, a drastic elongation phase follows and fibril concentration increases rapidly. Therefore, by measuring the increase in fluorescence intensity attributable to ThT as well as the lag time of the increase, the fibrillation tendency of a peptide can be determined, thereby providing a measure of the physical stability of the peptide.
In the present study, test compounds were diluted in buffer to a final concentration of 3 mg/ml.
The fibrillation tendencies of the peptides were determined under stress using a Fluoroskan Ascent FL or Fluoroskan Ascent fluorometer. […] Plates were sealed with Scotch Tape (Quiagen). Samples were stressed by continuous cycles of 10 s shaking at 960 rpm and 50 s rest period at 37° C. Fibril development was monitored by measuring fluorescence intensity every 20 minutes. For each sample, eight replicates were tested.

CRF1R receptor = biological target: T2, CRF1R receptor (Homo sapiens, UniProt P34998); assay: cAMP activity at anti-target CRF1R, CRF1R-overexpression CHO cell line (Example 9); assay type: cell-based; settings: CRF1R-overexpression CHO cell line; for EC50: 0% HSA; for Emax: read-out: Emax (%)
T2 construct: host or cells: CHO-K1 clone 2
T2 sequence (P34998 24-415): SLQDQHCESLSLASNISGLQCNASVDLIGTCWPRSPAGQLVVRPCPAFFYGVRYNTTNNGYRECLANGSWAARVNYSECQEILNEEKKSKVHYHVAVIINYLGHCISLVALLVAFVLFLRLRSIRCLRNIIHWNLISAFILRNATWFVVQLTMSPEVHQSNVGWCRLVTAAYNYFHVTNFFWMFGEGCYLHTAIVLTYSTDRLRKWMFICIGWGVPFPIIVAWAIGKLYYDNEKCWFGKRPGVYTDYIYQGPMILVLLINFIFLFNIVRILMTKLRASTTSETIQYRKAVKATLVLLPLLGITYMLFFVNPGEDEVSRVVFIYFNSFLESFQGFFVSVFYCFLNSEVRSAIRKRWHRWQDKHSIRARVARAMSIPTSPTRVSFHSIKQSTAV
Method in brief: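 Using thawed CRF1R-overexpressing CHO cells at 2000 per well, compound is applied for 30 min at RT in HBSS/HEPES buffer with IBMX. Cellular cAMP content is determined via HTRF, and percent activity is calculated against 1000 nM UCN2 defined as 100%.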

rat CRF2R α receptor = assay: cAMP agonism at rat CRF2R α receptor in A7R5 rat aortic smooth muscle cells (Example 8); assay type: cell-based; settings: cAMP HTRF, A7R5 rat aortic smooth muscle cell line, 0% HSA
Method in brief: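 Potency (EC50) is the concentration reaching half-maximal activation, with responses scaled so that 1000 nM urocortin 2 equals 100%. Intracellular cAMP was quantified by homogeneous time-resolved fluorescence at 665/620 nm, 1 h after lysis-buffer reagents. Compound stimulation lasted 30 min at room temperature on 2000 IBMX-treated (2 mM) cells per well in HEPES-buffered HBSS.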

[3] = 0% HSA, read-out: EC50 [nM], 0% HSA
[4] = pH 7.4, Solubility in Buffer C [mg/ml]
[5] = Buffer A: 100 mM acetate buffer, pH 4.5
[6] = Buffer B: 100 mM acetate buffer, pH 4.5, 2.7 mg/ml m-cresol

| EC50 (human CRF2α receptor; [3]) | solubility at 1 h ([1]; pH 4.5, Solubility in Buffer B [mg/ml]) | solubility at 1 h [1, 4] | Increase in FI (fluorescence intensity) [2, 5] | Lag time [2, 5] | Increase in FI (fluorescence intensity) [2, 6] | Lag time [2, 6] | EC50 (CRF1R receptor) | Emax (CRF1R receptor) | EC50 (rat CRF2R α receptor) | EC50 (human CRF2α receptor; 0.1% HSA, read-out: EC50 [nM], 0.1% HSA) | Structure (SMILES) |
| --- | --- | --- | --- | --- | --- | --- | --- | --- | --- | --- | --- |
| 0.48 nM | > 9000 µg/mL | > 7900 µg/mL | No | >45 h | No | >45 h | > 1000 nM | 2.7% | 1.71 nM |  | CC[C@H](C)[C@H](N)C(=O)N[C@H](C(=O)N[C@@H](CC(C)C)C(=O)N[C@@H](CO)C(=O)N[C@@H](CC(C)C)C(=O)N[C@@H](CC(=O)O)C(=O)N[C@H](C(=O)N1CCC[C@H]1C(=O)N[C@H](C(=O)N[C@@H](CCCCN)C(=O)N[C@@H](CC(C)C)C(=O)N[C@@H](CCCCNC(=O)COCCOCCNC(=O)COCCOCCNC(=O)CC[C@H](NC(=O)CCCCCCCCCCCCCCCCC(=O)O)C(=O)O)C(=O)N[C@@H](CCC(N)=O)C(=O)N[C@H](C(=O)N[C@@H](CC(C)C)C(=O)N[C@@H](CC(C)C)C(=O)N[C@@H](CCCCN)C(=O)N[C@@H](CCC(N)=O)C(=O)N[C@@H](CCC(=O)O)C(=O)N[C@@H](CCCNC(=N)N)C(=O)N[C@@H](CCC(N)=O)C(=O)N[C@@H](CCCCN)C(=O)N[C@@H](CCCCN)C(=O)N[C@@H](CCC(N)=O)C(=O)N[C@@H](CCCNC(=N)N)C(=O)N[C@@H](CCC(N)=O)C(=O)N[C@@H](CCC(N)=O)C(=O)N[C@@H](C)C(=O)N[C@@H](CCC(=O)O)C(=O)N[C@H](C(=O)N[C@@H](CC(N)=O)C(=O)NC(C)(C)C(=O)N[C@@H](CCC(N)=O)C(=O)N[C@H](C(=O)N[C@@H](CC(C)C)C(=O)N[C@@H](C)C(=O)N[C@@H](CCC(N)=O)C(=O)N[C@H](C(N)=O)C(C)C)[C@@H](C)CC)[C@@H](C)O)[C@@H](C)CC)[C@@H](C)CC)C(C)C)C(C)C [compound 75] (H-IVLSLDVPIKLK([AEEA-AEEA-γGlu-C18 diacid])QILLKQERQKKQRQQAETN[Aib]QILAQV-NH2) |
| 0.11 nM |  | > 8800 µg/mL | No | >45 h | No | >45 h | > 1000 nM | 1.03% | 0.22 nM | 4.36 nM | CC[C@H](C)[C@H](NC(=O)[C@H](CCC(N)=O)NC(=O)[C@H](CCCCNC(=O)COCCOCCNC(=O)COCCOCCNC(=O)CC[C@H](NC(=O)CCCCCCCCCCCCCCCCC(=O)O)C(=O)O)NC(=O)[C@H](CC(C)C)NC(=O)[C@H](CCCCN)NC(=O)[C@@H](NC(=O)[C@@H]1CCCN1C(=O)[C@@H](NC(=O)[C@H](CC(=O)O)NC(=O)[C@H](CC(C)C)NC(=O)[C@H](CO)NC(=O)[C@H](CC(C)C)NC(=O)[C@@H](NC(=O)[C@@H](N)Cc1ccccc1)[C@@H](C)O)C(C)C)[C@@H](C)CC)C(=O)N[C@@H](CC(C)C)C(=O)N[C@@H](CC(C)C)C(=O)N[C@@H](CCCCN)C(=O)N[C@@H](CCC(N)=O)C(=O)N[C@@H](CCC(=O)O)C(=O)N[C@@H](CCCNC(=N)N)C(=O)N[C@@H](CCC(N)=O)C(=O)N[C@@H](CCCCN)C(=O)N[C@@H](CCCCN)C(=O)N[C@@H](CCC(N)=O)C(=O)N[C@@H](CCCNC(=N)N)C(=O)N[C@@H](CCC(N)=O)C(=O)N[C@@H](CCCCN)C(=O)N[C@@H](C)C(=O)N[C@@H](CCCCN)C(=O)N[C@@H](CCCCN)C(=O)N[C@@H](CC(N)=O)C(=O)N[C@@H](CCCCN)C(=O)N[C@@H](CCC(N)=O)C(=O)N[C@H](C(=O)N[C@@H](CC(C)C)C(=O)N[C@@H](CCC(=O)O)C(=O)N[C@@H](CCCNC(=N)N)C(=O)N[C@H](C(N)=O)C(C)C)[C@@H](C)CC [compound 146] (H-FTLSLDVPIKLK([AEEA-AEEA-γGlu-C18 diacid])QILLKQERQKKQRQKAKKNKQILERV-NH2; N-terminus assumed) |
